Experimental data as given in patent publication US20220193029A1, “BRYOSTATIN COMPOUNDS FOR ENHANCEMENT OF IMMUNOTHERAPY” (priority 2019, published 2022).

Columns and labels:
[1] = system: CD22 surface expression in JB cells; assay: CD22 surface expression assay, AIDS-NHL cell line JB; conditions: 1 nM or 10 nM, 48 hours
Procedure: (§10) AIDS-NHL cell lines were incubated in IF10 medium, consisting of IMDM medium (Life technologies) containing 10% fetal bovine serum (FBS, Omega Scientific), 100 units/mL of penicillin, and 100 μg/ml of streptomycin (Invitrogen). Cells were incubated at 37° C. in 5% CO2.
(§11) Cells were exposed to compound for the either 24 or 48 h before staining and flow cytometric analysis of receptor levels.
(§12) Cells in each well were washed with phosphate buffered saline (PBS) containing 2% FBS, then cells were centrifuged for 9 min at 233 xg and resuspended in 50 μL of a 1:1 dilution of phosphate buffered saline (PBS): Human AB serum (Sigma). […] Stained samples were stored at 4° C. Flow cytometry samples were analyzed using a FACSCelesta (BD Biosciences) flow cytometer and data were analyzed using FlowJo software (version 10).
(§13) Panel C: JB cells were incubated with 1 nM (left hand bars) or 10 nM (right hand bars) of compound for 48 hours. CD22 surface expression was then assayed by flow cytometry (n=6 biological replicates; data presented as mean values ±SE). Panel D: 2F7 cells were incubated with 1 nM (left hand bars) or 10 nM (right hand bars) of compound for 48 hours. CD22 surface expression was then assayed by flow cytometry (n=6 biological replicates; data presented as mean values ±SE).

[2] = system: CD22 surface expression in NALM6 cells; assay: CD22 surface expression assay by flow cytometry; format: cell-based, human
Procedure: Cell cultures were maintained between 4×10^5 and 3×10^6 cells/mL according to vendor instructions.
Cell suspension from a confluent T75 flask (Fisher) was transferred to a 15 mL falcon tube and centrifuged at 1100 rpm for 7 minutes. […] Cells were counted using a Countess II Automated Cell Counter (Fisher). […] 199 μL of this stock was added to 24 wells (enough for triplicate measurements for 8 different experimental conditions) in a 96-well plate. […] 1 μL of DMSO or the appropriate stock solution of compound in DMSO was added to each well. Cells were incubated for 24 hours, at which point the cell suspensions were transferred to 1.5 mL Eppendorf tubes and diluted with 1.0 mL of PBS (Hyclone, without Ca^2+ or Mg^2+). Samples were centrifuged at 2000 rpm for 5 min at RT. […] Cells were sub-cultured between 2×10^5 and 3×10^6 cells/mL in 24-well plates for an additional 24 hrs-7 days, at which point CD22 surface expression was assayed by flow cytometry.
Cells from one well were counted using a Countess II Automated Cell Counter (Fisher). ˜200,000-300,000 cells from each well were added to 1.5 mL Eppendorf tubes containing PBS (final volume ˜1.2 mL). The cell suspensions were centrifuged at 1500 rpm for 7 minutes at 4° C. The supernatant was aspirated, and the cell pellet was resuspended in 99 μL of pre-chilled FACS buffer (0.5% w/v BSA in PBS). […] Samples were then diluted with an additional 1.0 mL of FACS buffer and centrifuged at 1500 rpm for 7 minutes at 4° C. […] Cells were stained with DAPI and CD22 surface expression was analyzed using the FACScan Analyzer at the Stanford Shared FACS Facility. Data analysis was performed using FlowJo and Microsoft Excel.

[3] = system: CD22 surface expression in 2F7 cells; assay: CD22 surface expression assay, AIDS-NHL cell line 2F7; conditions: 1 nM or 10 nM, 48 hours
Procedure: as §10, §11, §12, §13

PKCα = target: T1, PKCα (Homo sapiens, UniProt P17252); assay: cell-free competitive PKC binding assay with [3H]-phorbol dibutyrate; conditions: competition with [3H]-PDBu, recombinant human PKC isoform
T1 construct: purchased Invitrogen
Procedure: (§1) Because a prerequisite for PKC pathway involvement is binding to PKC, compounds were initially evaluated for PKC affinity in a cell-free competitive binding assay with tritiated phorbol dibutyrate ([^3H]-PDBu). Assays were performed with representative members of both the conventional (PKCα) and novel (PKCδ) PKC families. Subsequently, compounds were assayed for PKC activation in living cells using an isoform translocation assay.
(§2) To a 50 mL polypropylene tube was added Tris-HCl (pH 7.4, 1 M, 1 mL), KCl (1 M, 2 mL), CaCl2) (0.1 M, 30 μL), and bovine serum albumin (BSA, 40 mg, Sigma-Aldrich). This mixture was diluted to 20 mL with deionized H2O and mixed gently. The buffer was stored on ice until use.
(§3) For every two assays, 3.5 mg phosphatidylserine (Avanti Polar Lipids, porcine, 25 mg/mL CHCl3 solution) was concentrated by removing chloroform under a stream of nitrogen followed by reduced pressure. The solid PS was suspended as vesicles in freshly prepared PKC binding assay buffer (3.5 mL) by sonicating six times for 30 sec, with a 30 sec rest between sonications (Branson Sonifier 250, power=2, 50% duty cycle). The resulting milky cloudy mixture (1 mg/mL) was stored on ice until use.
(§4) Assay PKC was prepared by dissolving a 4 μg aliquot of the indicated recombinant human PKC isoform (Invitrogen) into 11.6 mL of PKC binding assay buffer (this amount is sufficient for two assays). The diluted PKC was stored on ice for immediate use.
(§5) ^3H-PDBu (American Radiolabeled Chemicals, Inc.; 1 mCi/mL acetone solution; specific activity: 20 Ci/mmol) was diluted […] with DMSO. The resulting 500 nM stock solution was further diluted with DMSO to 30 nM.
(§6) Compound dilutions were prepared by serially diluting from a chosen “high” concentration by factors of 3 or 4.
(§7) To a polypropylene tube was added 3.3 mL of 1 mg/mL PS vesicles solution, 11 mL of PKC isoform solution, and 1.1 mL of 30 nM ^3H-PDBu solution were added. The resulting solution was vortexed to mix and stored on ice.
(§8) Materials: • Glass-fiber filters (Whatman GF/B) were prepared by soaking them in a solution of aqueous polyethyleneimine (10% by vol, 18 mL) in deionized water (600 mL) for ≥1 h. • 500 mL “rinsing buffer” of 20 mM Tris, pH 7.4 was cooled on ice for the duration of the incubation period and for the remainder of the assay.
(§9) Triplicate data points were obtained for each analog concentration. For each data point, 280 μL of “Master Mix” Solution and 20 μL of analog compound at a specified concentration were added to a polypropylene tube. […] Maximal ^3H-PDBu binding was assessed in triplicate by substitution of the analog compound with 20 μL DMSO. The solutions were vortexed to mix, incubated at 37° C. for 10 min, and incubated on ice for at least 30 min prior to filtration. Using a Brandel Harvester, the assay contents from each polypropylene tube were vacuum-filtered through polyethylenimine-soaked filters, washing with rinsing buffer (3×) and drying first under vacuum for 5 min and then under ambient conditions for ≥2 h. The resulting filters had circular perforations for each data point, which were removed with forceps and placed in a scintillation vial. Scintillation vials were filled with Bio-Safe II scintillation fluid (5 mL) and measured for radioactivity using a Beckman LS 6000SC scintillation counter. Counts per minute (cpm) were averaged for each triplicate dilution. The data were plotted—cpm vs. log(concentration)—using Prism® by GraphPad Software and an IC50 was determined using that program's built-in one-site competition least squares regression function. Ki values were calculated using the equation: Ki=IC50/(1+([3H−PDBu]/Kd)). The Kd of ^3H-PDBu for PKC isoforms was measured separately via saturation binding experiments under identical conditions.

NALM6 tumor cells = assay: NSG mice with NALM6 tumor cells treated with CD22 CAR T cells plus bryostatin 1; conditions: NALM6 tumor cells day 0, CD22 CAR day 3, bryostatin 1 three times weekly for 2 weeks
Text: Mice were imaged using IVIS™ technology and luciferin-D IP injections.

PKC = assay: cell-free PKC binding assay, isoform not given; parameters: species or system human
Procedure: as §1, §4, §9

PKCδ-GFP fusion protein = assay: PKCδ-GFP translocation assay in living CHO-k1 cells (confocal microscopy); format: cell-based, Chinese hamster; conditions: for cytosolic PKC translocated to the plasma membrane: 1000 nM, at about 5 minutes; for concentration* (minimum effective concentration required to induce translocation of PKC-GFP to the membrane) / % Translocation: CHO-k1 cells; for % Translocation: maximum translocation of PKCδ-GFP to the plasma membrane at the concentration printed in the same cell, SUW212: only brief translocation observed
Procedure: as §1
Chinese hamster ovary factor K1 (CHO-k1, ATCC) cells were cultured in F-12 Kaighn's media (Hyclone, 10% fetal bovine serum, 1% penicillin/streptomycin added, referred to as F-12+/+ below) at 37° C. in an incubator (5% CO2). Cell cultures were maintained by splitting cells 1:3 when they reached ˜75-100% confluence (every 2-3 days) as follows:
1 mL of the cell suspension was then added to 9 mL of fresh F-12+/+ and the sample was sub-cultured until reaching confluence (˜2-3 days).
Cells were counted using a Countess II Automated Cell Counter (Fisher). The cell suspension was diluted to 240,000 cells/mL with fresh F-12+/+ and 2.5 mL of this diluted stock was added to one well in a 6-well plate. The cells were then cultured for 24 hours.
F-12+/+ was aspirated and cells were washed with F-12−/−. 2 mL of fresh F-12−/− was then added to each well, taking care not to disturb adherent cells. For each well of CHO-k1 cells, 12.5 μL Lipofectamine 2000 reagent (Invitrogen) was added to 250 μL Opti-MEM reduced serum media (Invitrogen) in a polypropylene tube and incubated for 20 minutes at RT. Meanwhile, for each well, 4 μg of PKCδ-GFP pDNA and 250 μL Opti-MEM reduced serum media was added to a separate polypropylene tube. 250 μL of the Lipofectamine 2000 suspension was added to the DNA suspension and the solution incubated for 30 minutes at RT. 500 μL of the Lipofectamine/DNA suspension was added to the respective wells of the 6-well plate. The cells were then incubated at 37° C. (5% CO2) for ˜24 hrs.
F-12+/+ was aspirated and cells were washed with F-12−/−. 2.4 mL of fresh F-12−/− was then added to each well, taking care not to disturb adherent cells. A 4 μg aliquot of PKCδ-GFP pDNA was added to PBS (pH 5.5, final volume 100 μL). 5.6 μL of DA 13:11 (2 mM stock in DMSO) was then added to the DNA solution, and the mixture was gently mixed (by flicking) for 20 seconds, at which point it was added directly to the respective wells of the 6-well plate. The cells were then incubated at 37° C. (5% C02) for ˜24 hrs.
After incubation, the media was aspirated and cells were washed with PBS (2.0 mL) and trypsinized (500 μL). The cell suspension was then diluted with 2.0 mL F-12+/+. 200 μL aliquots were added to 3 wells of a Lab-Tek II 4-well chambered coverglass slide (Fisher), producing 4 slides in total, each with three wells of cells. The cell suspension was directly diluted with 600 μL of additional F-12+/+. The resulting samples were incubated for ˜24 hrs. prior to imaging.
Fluorescent images were obtained using a Leica SP8 White Light Confocal microscope and the Leica AF software package. Prior to analysis, media was aspirated and 800 μL of PBS (Hyclone, without Ca^2+ or Mg^2+) supplemented with glucose (10 mM) was added to each well of the chambered coverglass slide. Bryostatin and bryostatin analogs were diluted to the appropriate concentration in 200 μL of 10 mM glucose in PBS. Cells were located for imaging and data was recorded for three wells in parallel, imaging at predetermined positions in each well using adaptive focus control. Cells were imaged at 30 second intervals following the addition of compound (set to t=0) for 20-40 minutes. Data were recorded at room temperature. Images were exported as .lif files and fluorescence intensity was analyzed using FIJI (NIH) software.

PKCδ = target: T2, PKCδ (Homo sapiens, UniProt Q05655); assay: cell-free competitive PKC binding assay with [3H]-phorbol dibutyrate; conditions: competition with [3H]-PDBu, recombinant human PKC isoform
T2 construct: purchased Invitrogen
T2 sequence (Q05655 whole entry, canonical isoform): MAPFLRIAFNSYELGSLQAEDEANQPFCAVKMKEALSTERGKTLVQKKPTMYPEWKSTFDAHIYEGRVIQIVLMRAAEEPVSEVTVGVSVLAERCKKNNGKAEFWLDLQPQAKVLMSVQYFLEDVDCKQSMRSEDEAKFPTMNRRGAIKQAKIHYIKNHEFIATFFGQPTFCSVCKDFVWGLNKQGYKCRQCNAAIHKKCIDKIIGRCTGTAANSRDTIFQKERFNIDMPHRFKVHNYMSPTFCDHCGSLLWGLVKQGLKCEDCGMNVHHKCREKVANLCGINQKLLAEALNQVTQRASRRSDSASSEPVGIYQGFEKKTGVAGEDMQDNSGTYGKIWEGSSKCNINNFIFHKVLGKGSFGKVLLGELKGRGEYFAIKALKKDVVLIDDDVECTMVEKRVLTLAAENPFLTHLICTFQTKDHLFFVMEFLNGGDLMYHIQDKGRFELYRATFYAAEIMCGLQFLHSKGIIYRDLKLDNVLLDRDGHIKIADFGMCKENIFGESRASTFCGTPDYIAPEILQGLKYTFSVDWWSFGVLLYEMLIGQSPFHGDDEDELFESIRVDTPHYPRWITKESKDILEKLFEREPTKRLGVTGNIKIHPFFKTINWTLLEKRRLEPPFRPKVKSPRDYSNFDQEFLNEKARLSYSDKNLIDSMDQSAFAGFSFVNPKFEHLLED
Procedure: as §1, §2, §3, §4, §5, §6, §7, §8
Triplicate data points were obtained for each analog concentration. For each data point, 280 μL of “Master Mix” Solution and 20 μL of analog compound at a specified concentration were added to a polypropylene tube. […] Maximal ^3H-PDBu binding was assessed in triplicate by substitution of the analog compound with 20 μL DMSO. The solutions were vortexed to mix, incubated at 37° C. for 10 min, and incubated on ice for at least 30 min prior to filtration. Using a Brandel Harvester, the assay contents from each polypropylene tube were vacuum-filtered through polyethylenimine-soaked filters, washing with rinsing buffer (3×) and drying first under vacuum for 5 min and then under ambient conditions for ≥2 h. The resulting filters had circular perforations for each data point, which were removed with forceps and placed in a scintillation vial. Scintillation vials were filled with Bio-Safe II scintillation fluid (5 mL) and measured for radioactivity using a Beckman LS 6000SC scintillation counter. Counts per minute (cpm) were averaged for each triplicate dilution. The data were plotted—cpm vs. log(concentration)—using Prism® by GraphPad Software and an IC50 was determined using that program's built-in one-site competition least squares regression function. […] The Kd of ^3H-PDBu for PKC isoforms was measured separately via saturation binding experiments under identical conditions.

CCC/C=C/C=C/C(=O)O[C@H]1/C(=C/C(=O)OC)C[C@H]2C[C@H]([C@@H](C)O)OC(=O)C[C@H](O)C[C@@H]3C[C@H](OC(C)=O)C(C)(C)[C@](O)(C[C@@H]4C/C(=C/C(=O)OC)C[C@H](/C=C/C(C)(C)[C@]1(O)O2)O4)O3 [Bryostatin 1, reference compound]
upregulated CD22 surface expression [1]: ~2 fold
time for which increased CD22 surface expression was sustained following treatment ([2]; 10 nM for 24 hours, then washed out and sub-cultured): up to 7 days
increase in CD22 surface density ([2]; NALM6 cells incubated 24 hours, flow cytometry): > 2 fold
upregulated CD22 surface expression [3]: ~2 fold
Ki (PKCα): 0.8 nM
durability of response to CD22 CAR T cell treatment (NALM6 tumor cells): improves durability of response
binding affinity to PKC, in words (PKC): single digit nanomolar binder

CCCC=CC=CC(=O)OC1C(=CC(=O)OC)CC2CC(C(C)O)OC(=O)CC(O)CC3CC(OC(C)=O)C(C)(C)C(O)(CC4CC(=CC(=O)OC)CC(C=CC(C)(C)C1(O)O2)O4)O3 (stereo not drawn) [SUW201]
upregulated CD22 surface expression [1]: ~2 fold
upregulated CD22 surface expression [3]: ~2 fold
Ki (PKCα): 0.54 nM

CCCC=CC=CC(=O)OC1C(=CC(=O)OC)CC2CC(C(C)O)OC(=O)CC(O)CC3CC(OC(C)=O)C(C)(C)C(O)(CC4CC(OC(=O)CC56CC7CC(CC(C7)C5)C6)CC(C=CC(C)(C)C1(O)O2)O4)O3 (stereo not drawn) [SUW209]
activity in the PKC translocation assay at 200 nM (PKCδ-GFP fusion protein): inactive
cytosolic PKC translocated to the plasma membrane (PKCδ-GFP fusion protein): ~70%
concentration* (minimum effective concentration required to induce translocation of PKC-GFP to the membrane) (PKCδ-GFP fusion protein): 1000 nM
% Translocation (PKCδ-GFP fusion protein): 60%
Ki (PKCδ): 3.5 nM
Ki (PKCα): 1.6 nM
binding affinity to PKC, in words (PKC): high affinity PKC binders

CCCC=CC=CC(=O)OC1C(=CC(=O)OC)CC2CC(C(C)O)OC(=O)CC(O)CC3CC(OC(C)=O)C(C)(C)C(O)(CC4CC(OC(=O)CCc5c[nH]c6ccccc56)CC(C=CC(C)(C)C1(O)O2)O4)O3 (stereo not drawn) [SUW210]
activity in the PKC translocation assay at 200 nM (PKCδ-GFP fusion protein): inactive
cytosolic PKC translocated to the plasma membrane (PKCδ-GFP fusion protein): ~70%
concentration* (minimum effective concentration required to induce translocation of PKC-GFP to the membrane) (PKCδ-GFP fusion protein): 1000 nM
% Translocation (PKCδ-GFP fusion protein): 75%
Ki (PKCδ): 7.3 nM
Ki (PKCα): 5.6 nM
binding affinity to PKC, in words (PKC): high affinity PKC binders
